Assay results reported in article PMC9014415, “Repositioning of a Diaminothiazole Series Confirmed to Target the Cyclin-Dependent Kinase CRK12 for Use in the Treatment of African Animal Trypanosomiasis” (Journal of Medicinal Chemistry, 2022).
Marks after values point to notes of the source that are not given here.

What was measured:
T. vivax = test: Cattle efficacy for compound 2, intramuscular (CIRDES), T. vivax; format: in vivo, Trypanosoma vivax
Protocol: Compound 2 was progressed into IM efficacy studies dosing at 10 mg/kg either once or twice, 15 h apart, in cattle infected with T. congolense or T. vivax. […]
3.5 Cattle efficacy for compound 2, intramuscular (CIRDES)
Felani-zebu cattle were housed in a fly-proof facility, acclimatised for 15 d prior to the study, cattle were treated with an anthelmintic, an ectoparasiticide and an antibiotic. Donor animals were infected with stabilates (frozen stocks) of either T. congolense KOT256 (resistant to 7 mg/kg diminazene in cattle) or T. vivax Gando Bongaly (resistant to diminazene 7 mg/kg and to isometamidium 1 mg/kg […]
in cattle). Blood from the donor animals, diluted with phosphate buffered glucose was used to infect recipient animals IV via the jugular vein. Infection was with approximately 100,000 fresh viable parasites. The compounds were given IM. Each injection was up to 10 mL and given in neck in the following order: left anterior third, right anterior third, left posterior third and right posterior third.
Animals over 240 kg required a fifth injection site for the IVP, and this was given in the left or right hind leg. Cattle were randomised to treatments. Parasitaemia was monitored 3 times per calendar week, though collection of blood and assessment of clinical symptoms. Blood samples were also […]
treatment). […]

[1] = molecular target: T1, Phosphoglycerate kinase (PGK) (Trypanosoma brucei brucei, UniProt P07378); test: SILAC pull-down with resin-bound 13, competition by compound 2; format: binding; settings: procyclic lysate; compound 2 10 μM vs DMSO; mean of three experiments
T1 construct: endogenous in cells; host or cells: Trypanosoma brucei procyclic form, whole-cell lysate
Protocol: Chemical proteomic studies were carried out by immobilizing an analogue of compound 2 (probe 13; Figure 3A and Scheme 4) to magnetic beads via a polyethyleneglycol (PEG) linker. Appropriate attachment sites for the PEG linker were informed by the established structure–activity relationships within this series, and an advanced intermediate toward the final derivatized compound was screened against both bloodstream and procyclic forms of T. brucei to ensure that it retained potency. The analogue was immobilized by attachment to NHS-ester-activated paramagnetic beads. Activated beads were then incubated in SILAC (stable isotope labeling by amino acids in cell culture)-labeled T. brucei procyclic whole-cell lysates in the presence or absence of compound 2 (10 μM) with either “light-“ or “heavy”-labeled lysate. After combining the eluates from the beads and performing proteomic analyses, proteins that bound specifically to the diaminothiazole pharmacophore were distinguished from proteins that bound non-specifically to the beads by virtue of compound 2:DMSO tryptic peptide isotope ratios. As a result of these studies, four kinases and a cyclin were identified as specific binders of the compound 2-derivatized beads (Figure 3B and Table S11). It should be noted that of the four kinases identified, only CRK12 has been established as essential for survival of T. brucei.[14] […]

T1 sequence (P07378 whole entry): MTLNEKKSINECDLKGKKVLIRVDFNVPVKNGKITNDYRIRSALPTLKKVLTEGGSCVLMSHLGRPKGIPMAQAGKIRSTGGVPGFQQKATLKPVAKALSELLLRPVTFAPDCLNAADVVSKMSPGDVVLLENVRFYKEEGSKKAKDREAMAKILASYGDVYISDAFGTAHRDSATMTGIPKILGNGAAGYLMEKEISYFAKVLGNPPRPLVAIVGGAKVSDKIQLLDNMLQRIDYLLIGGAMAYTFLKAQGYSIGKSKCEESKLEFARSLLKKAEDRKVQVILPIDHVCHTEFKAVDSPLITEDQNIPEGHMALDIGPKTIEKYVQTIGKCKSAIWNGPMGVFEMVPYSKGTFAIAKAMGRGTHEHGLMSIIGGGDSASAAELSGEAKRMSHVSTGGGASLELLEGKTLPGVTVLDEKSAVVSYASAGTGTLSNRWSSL

CC(C)CS(=O)(=O)N[C@H]1CC[C@H](Nc2nc(N)c(C(=O)c3c(F)cc(CN(C)C)cc3F)s2)CC1 [Compound 2, N-(trans)-[4-[[4-Amino-5-[4-(dimethylaminomethyl)-2,6-difluoro-benzoyl]thiazol-2-yl]amino]cyclohexyl]-2-methyl-propane-1-sulfonamide]
efficacy (T. vivax; T5, 10 mg/kg IM once): 0/5 ^a | Efficacy, individual animals (T. vivax; T5 dosed once IM, animals 1907, 1918, 1932, 1933, 1940): No | efficacy (T. vivax; T6, 10 mg/kg IM twice, 15 h apart): 0/3 ^a | Efficacy, individual animals (T. vivax; T6 dosed twice IM, animals 1902, 1926, 1929): No | efficacy (T. vivax; T9, saline twice, followed by compound 2 rescue dose twice IM 4 days later): 0/2 ^a | Efficacy, individual animals (T. vivax; T9 after 2 (rescue IM), animals 1931, 1934): No and no | Cattle cured (T. vivax; T. vivax-infected cattle, 10 mg/kg IM once or twice, 10 mg/kg): none and not cured | Log2 ratio DMSO/compound [1]: 1.92
